Measurements reported in ChEMBL document CHEMBL3763064, “Discovery of silyl proline containing HCV NS5A inhibitors with pan-genotype activity: SAR development” (Bioorg Med Chem Lett, 2016).

Assays:
Hepatitis C virus [1] = test: Antiviral activity against HCV genotype 2a by replicon assay; assay type: functional, organism-based, Hepacivirus hominis
Hepatitis C virus [2] = test: Antiviral activity against HCV genotype 1b by replicon assay; assay type: functional, organism-based, Hepacivirus hominis
Hepatitis C virus [3] = test: Antiviral activity against HCV genotype 1a by replicon assay; assay type: functional, organism-based, Hepacivirus hominis; settings: subtype 1a
Hepatitis C virus [4] = test: Antiviral activity against HCV genotype 3a by replicon assay; assay type: functional, organism-based, Hepacivirus hominis
Hepatitis C virus [5] = test: Antiviral activity against HCV genotype 1a expressing NS5A Y93H mutant by replicon assay; assay type: functional, organism-based, Hepacivirus hominis; settings: subtype 1a
[6] = target: T1, Nuclear receptor subfamily 1 group I member 2 (Homo sapiens, UniProt O75469); test: Activation of PXR (unknown origin); assay type: ADME
T1 sequence (O75469 whole entry): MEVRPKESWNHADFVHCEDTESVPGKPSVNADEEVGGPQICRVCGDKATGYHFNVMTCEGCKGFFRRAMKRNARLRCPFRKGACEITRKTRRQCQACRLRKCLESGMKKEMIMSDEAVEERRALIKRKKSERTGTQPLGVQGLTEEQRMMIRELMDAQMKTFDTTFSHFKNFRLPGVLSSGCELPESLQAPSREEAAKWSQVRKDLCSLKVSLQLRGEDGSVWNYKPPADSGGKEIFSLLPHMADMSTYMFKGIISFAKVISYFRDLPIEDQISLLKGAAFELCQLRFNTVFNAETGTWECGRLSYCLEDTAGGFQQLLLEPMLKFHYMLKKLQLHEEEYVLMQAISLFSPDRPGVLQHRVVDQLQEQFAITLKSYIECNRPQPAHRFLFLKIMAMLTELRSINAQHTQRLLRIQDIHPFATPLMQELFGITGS

Hepatitis C virus [7] = test: Antiviral activity against HCV genotype 2b by replicon assay; assay type: functional, organism-based, Hepacivirus hominis
Rattus norvegicus = test: AUC in Sprague-Dawley rat at 5 mg/kg, po; assay type: ADME, organism-based; settings: in vivo
[8] = Half life in iv dosed Sprague-Dawley rat; assay type: ADME, organism-based; settings: in vivo

In the case of COC(=O)N[C@H](C(=O)N1C[Si](C)(C)C[C@H]1c1ncc(-c2ccc(-c3ccc4c(ccc5nc([C@@H]6CCCN6C(=O)[C@@H](NC(=O)OC)C(C)C)[nH]c54)c3)cc2)[nH]1)C(C)C, the EC50 (Hepatitis C virus [1]) is reported as 0.02 nM, the EC50 (Hepatitis C virus [2]) is reported as 0.003 nM and the EC50 (Hepatitis C virus [3]) is reported as 0.014 nM. For the same molecule, the EC50 (Hepatitis C virus [4]) was 0.05 nM and the EC50 (Hepatitis C virus [5]) was 95 nM.
COC(=O)N[C@H](C(=O)N1CCC[C@H]1c1ncc(-c2ccc(-c3ccc(-c4cnc([C@@H]5C[Si](C)(C)CN5C(=O)[C@@H](NC(=O)OC)C(C)C)[nH]4)cc3)cc2)[nH]1)C(C)C showed an EC50 (Hepatitis C virus [1]) of 0.04 nM, an EC50 (Hepatitis C virus [2]) of 0.003 nM and an EC50 (Hepatitis C virus [3]) of 0.04 nM. For the same molecule, the EC50 (Hepatitis C virus [4]) was 0.5 nM and the EC50 (Hepatitis C virus [5]) was 92 nM.
In the case of COC(=O)N[C@H](C(=O)N1CCC[C@H]1c1ncc(-c2ccc(-c3cc4cc(-c5cnc([C@@H]6CCCN6C(=O)[C@@H](NC(=O)OC)C(C)C)[nH]5)ccc4o3)cc2)[nH]1)C(C)C, the EC50 [6] is reported as 3300 nM, the EC50 (Hepatitis C virus [1]) is reported as 0.4 nM and the EC50 (Hepatitis C virus [2]) is reported as 0.001 nM. The EC50 (Hepatitis C virus [3]) was 0.01 nM, the EC50 (Hepatitis C virus [4]) was 4 nM and the EC50 (Hepatitis C virus [7]) was 286 nM. It also gave an EC50 (Hepatitis C virus [5]) of 24 nM.
COC(=O)N[C@H](C(=O)N1CC(F)(F)C[C@H]1c1ncc(-c2ccc(-c3ccc4c(ccc5nc([C@@H]6C[Si](C)(C)CN6C(=O)[C@@H](NC(=O)OC)C(C)C)[nH]c54)c3)cc2)[nH]1)C(C)C showed an EC50 (Hepatitis C virus [3]) of 0.015 nM, an EC50 (Hepatitis C virus [5]) of 46 nM and an AUC (Rattus norvegicus) of 5 uM.hr/ml.
Molecule COC(=O)N[C@H](C(=O)N1C[Si](C)(C)C[C@H]1c1ncc(-c2ccc(-c3ccc4c(ccc5nc([C@@H]6CC(F)(F)CN6C(=O)[C@@H](NC(=O)OC)C(C)C)[nH]c54)c3)cc2)[nH]1)C(C)C has an EC50 (Hepatitis C virus [5]) of 65 nM, an AUC (Rattus norvegicus) of 7.6 uM.hr/ml and a half-life [8] of 6.7 h.
In the case of COC(=O)N[C@H](C(=O)N1CCC[C@H]1c1ncc(-c2ccc(-c3ccc4c(ccc5nc([C@@H]6C[Si](C)(C)CN6C(=O)[C@@H](NC(=O)OC)C(C)C)[nH]c54)c3)cc2)[nH]1)C(C)C, the EC50 (Hepatitis C virus [1]) is reported as 0.004 nM, the EC50 (Hepatitis C virus [2]) is reported as 0.004 nM and the EC50 (Hepatitis C virus [3]) is reported as 0.003 nM. For the same molecule, the EC50 (Hepatitis C virus [4]) was 0.26 nM, the EC50 (Hepatitis C virus [5]) was 35 nM and the AUC (Rattus norvegicus) was 3.2 uM.hr/ml. The half-life [8] was 6.6 h.
For COC(=O)N[C@H](C(=O)N1CCC[C@H]1c1ncc(-c2ccc(-c3cc4cc(-c5cnc([C@@H]6C[Si](C)(C)CN6C(=O)[C@@H](NC(=O)OC)C(C)C)[nH]5)ccc4o3)cc2)[nH]1)C(C)C, the EC50 (Hepatitis C virus [1]) was 2.4 nM, the EC50 (Hepatitis C virus [2]) was 0.003 nM and the EC50 (Hepatitis C virus [3]) was 0.04 nM. The EC50 (Hepatitis C virus [4]) was 15 nM and the EC50 (Hepatitis C virus [5]) was 153 nM.
